We go through eleven compounds from ChEMBL document CHEMBL1770094, “Design, synthesis and antiproliferative activity of novel aminosubstituted benzothiopyranoisoindoles” (Bioorg Med Chem Lett, 2011).

Some results are limits rather than exact numbers.

A short description of test [1]: Cytotoxicity against human MES-SA cells assessed as inhibition of cell proliferation after 72 hrs by MTT assay. Format: functional, cell-based.
Test [2] is described as follows: Cytotoxicity against human MES-SA/Dx5 cells assessed as inhibition of cell proliferation after 72 hrs by MTT assay. To be noted: MES-SA/Dx5, 72 h. Format: functional, cell-based. (In general: Tetrazolium assays rely on reduction of a dye to a coloured formazan, in cell work by metabolically active cells.)
For the next test, the system named is HCT-116. The test can be described thus: Cytotoxicity against human HCT116 cells assessed as inhibition of cell proliferation after 72 hrs by MTT assay. The format is functional, cell-based. As to conditions: HCT-116, 72 h.
The subject of a further test is MES-SA. The test can be described thus: Resistant factor, ratio of IC50 for doxorubicin-resistant human MES-SA/Dx5 cells to IC50 for doxorubicin-sensitive human MES-SA cells. Format: functional.

For the compound `CCN(CC)CCn1cc2c([N+](=O)[O-])ccc3c2c1-c1ccccc1S3`, the half-maximal inhibitory concentration (IC50) (commonly the midpoint of a concentration-inhibition curve) in test [1] stood at 1.93 µM; in test [2], 5080 nM; in the test with HCT-116 it was 2.14 µM. Further, in the test on MES-SA, the “Ratio IC50” value came out at 2.63.

Take `O=[N+]([O-])c1ccc2c3c(n(CCN4CCCCC4)cc13)-c1ccccc1S2(=O)=O`: the IC50 in test [1] worked out at 3.98 µM; in test [2], 2550 nM; with HCT-116, 5.47 µM. Also, the “Ratio IC50” value in the test with MES-SA was found to be 0.64.

As to `O=[N+]([O-])c1ccc2c3c(n(CCN4CCCCC4)cc13)-c1ccccc1S2`, the IC50 is 16.7 µM in test [1], 9160 nM in test [2] and 8.09 µM with HCT-116. Also, the “Ratio IC50” value in the test with MES-SA was 0.55.

Consider `CN(C)CCn1cc2c([N+](=O)[O-])ccc3c2c1-c1ccccc1S3`, for which the IC50 in test [1] was determined as 4.44 µM; in test [2] it was 1700 nM; with HCT-116, 2.1 µM. The “Ratio IC50” value with MES-SA was found to be 0.38.

`O=[N+]([O-])c1ccc2c3c(n(CCN4CCCC4)cc13)-c1ccccc1S2(=O)=O`: the concentration for half-maximal inhibition (IC50) in test [1] worked out at 2.3 µM; in test [2], 1450 nM; with HCT-116, 7.04 µM. The “Ratio IC50” value in the test with MES-SA worked out at 0.63.

As to `CCN(CC)CCNc1ccc2c3c(n(CCN(CC)CC)cc13)-c1ccccc1S2(=O)=O`, the half-inhibitory concentration (IC50) in test [1] was 68.2 µM; in test [2], over 100000 nM; in the test on HCT-116 it was 60.4 µM.

As to `CCN(CC)CCn1cc2c([N+](=O)[O-])ccc3c2c1-c1ccccc1S3(=O)=O`, the half-inhibitory concentration (IC50) came out at 3.98 µM in test [1], 2610 nM in test [2] and 6.02 µM in the test with HCT-116. The “Ratio IC50” value with MES-SA is recorded as 0.66.

In the case of `O=[N+]([O-])c1ccc2c3c(n(CCN4CCCC4)cc13)-c1ccccc1S2`, the half-inhibitory concentration (IC50) stood at 1.72 µM in test [1], 2150 nM in test [2] and 1.15 µM in the test with HCT-116. Further, in the test on MES-SA, the “Ratio IC50” value was 1.25.

Take `O=C1c2c(O)ccc(O)c2C(=O)c2c(NCCNCCO)ccc(NCCNCCO)c21` [MITOXANTRONE]: the IC50 in test [1] is 0.012 µM; in test [2], 80 nM; with HCT-116 it was 0.022 µM. Moreover, the “Ratio IC50” value in the test on MES-SA came out at 6.67.

Turning to `CN(C)CCn1cc2c([N+](=O)[O-])ccc3c2c1-c1ccccc1S3(=O)=O`, the values for the IC50 (in test [1]; in test [2]; in the test on HCT-116) were 3.52 µM, 5180 nM and 5.42 µM, respectively. Moreover, the “Ratio IC50” value in the test on MES-SA is 1.47.

Consider `COc1cccc2c1C(=O)c1c(O)c3c(c(O)c1C2=O)C[C@@](O)(C(=O)CO)C[C@@H]3O[C@H]1C[C@H](N)[C@H](O)[C@H](C)O1` [DOXORUBICIN], for which the 50% inhibitory concentration (IC50) in test [1] is 0.03 µM; in test [2], 2400 nM; with HCT-116, 0.16 µM. Also, the “Ratio IC50” value with MES-SA was found to be 79.93.
